Where “and” joins values, the source holds several entries; their conditions need not be identical. Equal entries are not always repeated.
System: S. aureus strain UNT144-3
Experiment: S. aureus neutropenic lung model (murine pneumonia model)
Assay type: in vivo, Staphylococcus aureus
Conditions: neutropenic mice, 100 mg/kg SC at 2 and 6 hrs post-infection, CFU assessed 24 hr
Method: In a non-limiting example, the sensitivity of two S. aureus clinical isolates, UNT109-3 (NRS234, native valve endocarditis) and UNT144-3, that have been previously utilized in animal models of infection, was evaluated vs. the individual phage and the 4-phage cocktail. […] The virulence of the two strains was then evaluated in the murine lung infection model. Female Hsd:ICR(CD-1) mice (Harlan Laboratories, Houston, Tex.) were administered 150 and 100 mg/kg cyclophosphamide on day −4 and day −1 prior to infection to render them neutropenic. Groups of 5 mice were then anaesthetized by intraperitoneal (IP) injection of 0.15 mL of a mixture of ketamine HCl (100 mg/kg body weight) plus xylazine (10 mg/kg body weight). Once anaesthetized, mice were infected intranasally by placing drops on the external nares and allowing inhalation of the 50 μl inoculum. Twenty-four hours after infection, mice were euthanized by CO2 inhalation and lungs processed for bacterial titers. Bacterial counts were enumerated on Brain Heart Infusion agar (Difco™ Laboratories)+0.5% activated charcoal (Sigma-Aldrich) plates for ease of recovering and detecting S. aureus (Barr, J. G., et al., J Clin. Pathol. (1987) 40:372-376). […]
Three phage cocktail treatment groups were evaluated for efficacy: 2×10^10 PFU/mL per phage, 2×10^9 PFU/mL per phage, and 2×10^8 PFU/mL per phage. […]

CN[C@H](CC(C)C)C(=O)N[C@H]1C(=O)N[C@@H](CC(N)=O)C(=O)N[C@H]2C(=O)N[C@H]3C(=O)N[C@H](C(=O)N[C@H](C(=O)O)c4cc(O)cc(O)c4-c4cc3ccc4O)[C@H](O)c3ccc(c(Cl)c3)Oc3cc2cc(c3O[C@@H]2O[C@H](CO)[C@@H](O)[C@H](O)[C@H]2O[C@H]2C[C@](C)(N)[C@H](O)[C@H](C)O2)Oc2ccc(cc2Cl)[C@H]1O [Vancomycin]
Mean ± SD logo CFU/Lung Pair: 5.55 log10 CFU/lung pair and 5.55 ± 1.1 log10 CFU/lung pair

Reference: patent US11253557B2, “Therapeutic bacteriophage compositions” (priority 2015, dated 2022)
